Results from patent US11912693B2, “Compounds for modulating S1P1 activity and methods of using the same” (TREVENA, INC., priority 2017, dated 2024).

Assays:
[1] = tested on: peripheral blood lymphocytes; assay: Peripheral blood lymphocytes (lymphopenia) in c57bl/6 mice, acute and chronic studies; type: in vivo; details: peripheral blood lymphocytes vs vehicle; 6 mg/kg sc, 7 days
Description: Compounds were tested for changes in peripheral blood lymphocytes in c57bl/6 mice. In acute studies, animals (n=5/group) were dosed subcutaneously with test compound at a dose of 3 mg/kg. Animals were sacrificed at specific time points and 500 μl of whole blood was collected in EDTA (K2) Eppendorf tubes. Blood was stored on ice and shipped immediately overnight delivery to Charles River Laboratories for analysis. CRL ran samples through their WBC/differential panel on an Advia 120 instrument. We received peripheral lymphocyte counts (10^3 cells/μl) for each blood sample. Treatment group means were compared to a vehicle treatment group for statistical significance. In chronic studies, animals (n=6-8/group) were dosed subcutaneously with test compound either in a dose response paradigm (highest dose of 3 mg/kg) or in a screening paradigm at 6 mg/kg for seven days. On the seventh day, animals were sacrificed 45 minutes after the final dose. Whole blood was collected and analyzed as described for acute studies. […]

[2] = target: T1, human sphingosine-1-phosphate receptor 1 (S1P1) (Homo sapiens (Human), UniProt P21453); assay: Inhibition of cAMP production (HTRF cAMP HiRange), S1P1 CHO-K1 cells; type: cell-based; details: for Emax: CHO-K1, efficacy (SPAN) normalized to fingolimod, read-out: hS1P1 cAMP SPAN; for hS1P1 cAMP pEC50: inhibition of cAMP production, S1P1 CHO-K1 cells
How it was run: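 CHO-K1 cells stably co-expressing human S1P1 (C-terminal Prolink tag) and EA-β-arrestin2 were grown in AssayComplete Media 6 at 37° C. and 5% CO2, plated, and incubated overnight. Agonist-driven inhibition of intracellular cAMP was read by TR-FRET with the HTRF cAMP HiRange kit on a PheraStar reader. Potency is pEC50, and efficacy (SPAN) is normalized to fingolimod.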
Target sequence in this assay (P21453 whole entry, looked up): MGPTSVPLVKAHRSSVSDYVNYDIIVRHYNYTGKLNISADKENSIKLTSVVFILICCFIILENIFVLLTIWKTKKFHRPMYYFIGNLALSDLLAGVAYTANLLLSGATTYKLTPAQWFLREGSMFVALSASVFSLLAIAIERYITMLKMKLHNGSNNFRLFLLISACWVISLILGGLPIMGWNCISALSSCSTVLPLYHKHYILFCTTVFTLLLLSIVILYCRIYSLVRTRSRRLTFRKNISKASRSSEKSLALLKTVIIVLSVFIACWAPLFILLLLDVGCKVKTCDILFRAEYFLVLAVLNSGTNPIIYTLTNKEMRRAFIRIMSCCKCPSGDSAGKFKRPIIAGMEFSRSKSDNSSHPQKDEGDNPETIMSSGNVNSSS

[3] = tested on: paclitaxel induced peripheral neuropathy; assay: Reversal of allodynia induced by paclitaxel in mice (s.c. or p.o., von Frey frequency method); type: in vivo, c57bl/6 mice; details: Mus musculus; for inhibition in vivo at 1 mg/kg: sc, 0.5 h, 1 mg/kg s.c., tested 30 min after dosing, read-out: Screen @ 1 mg/kg sc (% MPE); for inhibition in vivo at 3 mg/kg: po, 1 h, 3 mg/kg p.o., tested 60 min after dosing, read-out: Screen @ 3 mg/kg po (% MPE)
How it was run: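 Neuropathy was induced in mice by paclitaxel (6 mg/kg i.p., days 1, 3, 5, 7) or oxaliplatin (4 mg/kg i.p., days 1-5), with re-testing about 14 days later. Compounds were given s.c. (tested at 30 min) or p.o. (tested at 60 min; paclitaxel only). A 0.4 g von Frey filament was applied ten times per paw, and % non-response was converted to % MPE.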

[4] = target: T1, human sphingosine-1-phosphate receptor 1 (S1P1); assay: β-Arrestin2 recruitment assay (PathHunter), S1P1 CHO-K1 cells; type: cell-based; details: for Emax: CHO-K1, efficacy (SPAN) normalized to fingolimod, read-out: hS1P1 B-arrestin2 SPAN; for hS1P1 B-arrestin2 pEC50: β-arrestin2 recruitment, S1P1 CHO-K1 cells
How it was run: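 Enzyme-fragment complementation read-out: agonist-driven β-arrestin2 binding to ProLink-tagged human S1P1 in stable CHO-K1 cells restores β-galactosidase, measured 1 h at room temperature after a 60 min 37° C. compound incubation. Potency as pEC50, efficacy relative to fingolimod (SPAN).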
Target sequence in this assay (P21453 whole entry, looked up): as above
Target sequence in this assay (P32121 whole entry partner, looked up): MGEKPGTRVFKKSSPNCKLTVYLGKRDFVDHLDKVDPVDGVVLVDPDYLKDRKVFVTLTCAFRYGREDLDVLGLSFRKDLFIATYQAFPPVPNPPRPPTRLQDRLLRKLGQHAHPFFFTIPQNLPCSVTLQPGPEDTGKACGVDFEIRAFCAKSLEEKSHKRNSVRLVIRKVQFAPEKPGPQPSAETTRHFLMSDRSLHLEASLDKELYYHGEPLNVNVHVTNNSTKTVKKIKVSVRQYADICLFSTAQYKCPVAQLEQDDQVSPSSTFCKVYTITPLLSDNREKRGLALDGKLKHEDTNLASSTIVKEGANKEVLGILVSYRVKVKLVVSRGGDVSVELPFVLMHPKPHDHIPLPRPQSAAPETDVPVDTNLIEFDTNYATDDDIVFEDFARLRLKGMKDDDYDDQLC

Row | SMILES | Lymphopenia: Effect and Doses, mg/kg, sc [1] | Emax [2] [%] | hS1P1 cAMP pEC50 [2] | Emax [4] [%] | hS1P1 B-arrestin2 pEC50 [4] | inhibition in vivo at 1 mg/kg [3] [%] | inhibition in vivo at 3 mg/kg [3] [%]
1 | Cc1cnccc1-c1nc(-c2ccc3c(c2)nnn3C(C)C)no1 [Compound 8, 3-(1-isopropyl-1H-benzo[d][1,2,3]triazol-5-yl)-5-(3-methylpyridin-4-yl)-1,2,4-oxadiazole] | no change: 6 mg/kg, 7 days | < 75 | <6.5 | < 75 | <5 | < 50 | –
2 | CC(F)(F)CNc1ccc(-c2nnc(-c3ccc4[nH]ncc4c3)o2)cc1C#N [Compound 355, 2-[(2,2-difluoropropyl)amino]-5-[5-(1H-indazol-5-yl)-1,3,4-oxadiazol-2-yl]benzonitrile] | no change: 6 mg/kg, 7 days | – | >6.5 | – | >5 | – | > 50
3 | CC(C)Nc1ccc(-c2nnc(-c3ccc4[nH]cnc4c3)o2)cc1C#N [Compound 356, 5-[5-(1H-1,3-benzodiazol-5-yl)-1,3,4-oxadiazol-2-yl]-2-[(propan-2-yl)amino]benzonitrile] | no change: 6 mg/kg, 7 days | > 75 | >6.5 | > 75 | >5 | – | > 50

Continued, in another order:

Row | Lymphopenia: Effect and Doses, mg/kg, sc [1] | Emax [2] [%] | hS1P1 cAMP pEC50 [2] | Emax [4] [%] | hS1P1 B-arrestin2 pEC50 [4] | SMILES | inhibition in vivo at 1 mg/kg [3] [%] | inhibition in vivo at 3 mg/kg [3] [%]
4 | no change: 6 mg/kg, 7 days | > 75 | >6.5 | > 75 | >5 | Cc1ccccc1-c1noc(-c2ccc3c(c2)nnn3CC(C)C)n1 [Compound 96, 5-[3-(2-methylphenyl)-1,2,4-oxadiazol-5-yl]-1-(2-methylpropyl)-1H-1,2,3-benzotriazole] | > 50 | –
5 | no change: 6 mg/kg, 7 days | – | >6.5 | – | >5 | CCC1(CC)CC(=O)c2cc(-c3nc(-c4ccc(NC(C)=O)cc4OC)no3)ccc2O1 [Compound 531, N-{4-[5-(2,2-diethyl-4-oxo-3,4-dihydro-2H-1-benzopyran-6-yl)-1,2,4-oxadiazol-3-yl]-3-methoxyphenyl}acetamide] | – | > 50
